Data as given in PubChem BioAssay (NCI).
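Where inhibition never reached the appropriate level, the endpoint shown equals the highest concentration tested. Otherwise, values were interpolated linearly from a five-concentration, 48-hour dose response in 96-well plates. Here, GI50 denotes the concentration required for 50% inhibition of growth. TGI: concentration producing complete growth inhibition.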

Assays:
Test in all cases: NCI anticancer screen, dose series, 48 h
786-0 renal = test system: 786-0 renal
CCRF-CEM leukemia = test system: CCRF-CEM leukemia
HT29 colon = test system: HT29 colon
KM12 colon = test system: KM12 colon
OVCAR-4 ovarian = test system: OVCAR-4 ovarian
OVCAR-5 ovarian = test system: OVCAR-5 ovarian
RPMI-8226 leukemia = test system: RPMI-8226 leukemia
SF-539 CNS = test system: SF-539 CNS
SR leukemia = test system: SR leukemia
EKVX NSCLC = test system: EKVX NSCLC

| SMILES | GI50 (786-0 renal) | TGI (786-0 renal) | GI50 (CCRF-CEM leukemia) | TGI (CCRF-CEM leukemia) | GI50 (HT29 colon) | TGI (HT29 colon) | GI50 (KM12 colon) | TGI (KM12 colon) | GI50 (OVCAR-4 ovarian) | TGI (OVCAR-4 ovarian) | GI50 (OVCAR-5 ovarian) | TGI (OVCAR-5 ovarian) | GI50 (RPMI-8226 leukemia) | TGI (RPMI-8226 leukemia) | GI50 (SF-539 CNS) | TGI (SF-539 CNS) | GI50 (SR leukemia) | TGI (SR leukemia) | TGI (EKVX NSCLC) | GI50 (EKVX NSCLC) |
| --- | --- | --- | --- | --- | --- | --- | --- | --- | --- | --- | --- | --- | --- | --- | --- | --- | --- | --- | --- | --- |
| O=C1C=C(OCC=C(C(F)(F)F)C(F)(F)F)c2ccccc2C1=O | 3.97 µM | 13.9 µM | 1.17 µM | 5.22 µM | 2.4 µM | 5.47 µM | 1.67 µM | 3.25 µM | 1.53 µM | 2.91 µM | 2.45 µM | 5.87 µM | 1.63 µM | 4.29 µM | 1.84 µM | 3.63 µM | 2.02 µM | 7.43 µM | – | – |
| O=C(CCC(=O)Nc1cccc(C(F)(F)F)c1)CC(=O)c1ccc2ccccc2c1 | – | > 100 µM | – | > 100 µM | – | > 100 µM | – | > 100 µM | – | > 100 µM | – | > 100 µM | – | > 100 µM | – | > 100 µM | – | – | > 100 µM | – |
| COc1ccccc1/C=C\C(=O)C1COCN1 (stereo not drawn) | – | 75.5 µM | – | > 100 µM | – | 30.6 µM | – | 24.6 µM | – | 53.2 µM | – | 67.4 µM | – | 7.53 µM | – | 38.5 µM | – | – | 42.6 µM | – |
| OC1CCCC2CCC[N-]C12.OC1CCCC2CCC[N-]C12.[O]=[V][OH] (stereo not drawn) | 7.08 µM | 24.8 µM | 0.493 µM | 12.2 µM | 4.72 µM | > 100 µM | 7.24 µM | > 100 µM | 3.05 µM | > 100 µM | 9.99 µM | > 100 µM | 2.54 µM | 25.8 µM | 15.8 µM | > 100 µM | – | – | 22.8 µM | 3.62 µM |
| N#C/C(=C1\OC(=N)C(c2ccccc2)C1=O)c1ccccc1 (stereo not drawn) | – | > 56.8 µM | – | 48.6 µM | – | 57.7 µM | – | > 100 µM | – | > 100 µM | – | > 100 µM | – | 73.3 µM | – | > 31.6 µM | – | – | > 73.2 µM | – |
| CC1=CP(=O)(c2ccccc2)C=C(C)C1=C(Cl)Cl (stereo not drawn) | – | 16.5 µM | – | 19.2 µM | – | 13.1 µM | – | 14.9 µM | – | 26 µM | – | – | – | 11.5 µM | – | 88.6 µM | – | – | – | – |
| O=C1C=C2CCCC2C(C(=O)O)(C(=O)O)C1 (stereo not drawn) | – | > 100 µM | – | > 100 µM | – | > 100 µM | – | > 100 µM | – | > 100 µM | – | – | – | > 100 µM | – | > 100 µM | – | – | > 100 µM | – |
| CCCCOc1ccc(/C=N/Nc2cc(C)nc3ccc(Br)cc23)cc1 | 1.83 µM | 3.37 µM | 1.88 µM | 4.46 µM | 1.55 µM | 2.97 µM | 1.95 µM | 3.85 µM | 1.67 µM | 3.06 µM | 1.86 µM | 3.25 µM | 2.03 µM | 4.58 µM | 1.84 µM | 3.29 µM | – | – | 3.03 µM | 1.63 µM |
| O=C(N/C(=C\c1ccccc1O)c1nc2ccccc2[nH]1)c1ccccc1 | – | > 100 µM | – | > 100 µM | – | > 100 µM | – | > 100 µM | – | > 100 µM | – | > 100 µM | – | > 100 µM | – | > 100 µM | – | – | > 100 µM | – |
| C/C=C/C(=O)[O-].C/C=C/C(=O)[O-].N.N.N.N.[Co+3].[O-][Cl+3]([O-])([O-])[O-] | > 100 µM | > 100 µM | > 100 µM | > 100 µM | > 100 µM | > 100 µM | > 100 µM | > 100 µM | > 100 µM | > 100 µM | > 100 µM | > 100 µM | > 100 µM | > 100 µM | > 100 µM | > 100 µM | – | – | > 100 µM | > 100 µM |
| O=C(Nc1cc(Cl)cc(Cl)c1)c1cccc(NC2=C(Cl)C(=O)N(Cc3ccccc3)C2=O)c1 | 26.8 µM | > 100 µM | 4.09 µM | > 100 µM | – | – | 31.5 µM | > 100 µM | 81.3 µM | > 100 µM | > 100 µM | > 100 µM | 2.31 µM | > 100 µM | – | – | 6.02 µM | 80.8 µM | – | – |
| C#CC1(O)C(COP(=O)(O)OCC2OC(n3cc(F)c(=O)[nH]c3=O)CC2O)OC(n2ccc(N)nc2=O)C1O (stereo not drawn) | < 0.01 µM | > 100 µM | < 0.01 µM | – | < 0.01 µM | > 100 µM | < 0.01 µM | > 23.8 µM | – | – | 0.309 µM | > 59.1 µM | < 0.01 µM | 0.119 µM | < 0.01 µM | 0.527 µM | – | – | > 29.8 µM | 0.529 µM |
| CCN(CC)CCN1c2nc3ccccc3cc2Sc2cc3ccccc3nc21 | 2.17 µM | 4.64 µM | 1.84 µM | 4.73 µM | 1.21 µM | 3.06 µM | 2.01 µM | 5 µM | 2.74 µM | 13.4 µM | 1.65 µM | 4.55 µM | 1 µM | 2.97 µM | 1.6 µM | 3.16 µM | – | – | 17.9 µM | 4.49 µM |
| C=C1C(=O)O[C@H]2[C@H]1CC/C(COC(=O)/C=C\C(=O)NCc1ccc(Cn3c(=O)sn(CCI)c3=O)cc1)=C\CC[C@@]1(C)O[C@@H]21 | 2.6 µM | 7.23 µM | 1.61 µM | 6.19 µM | 2.26 µM | 4.92 µM | 11.5 µM | 24.5 µM | 3.62 µM | 17.3 µM | 3.56 µM | 13.3 µM | – | – | 3.36 µM | 9.51 µM | – | – | 20.2 µM | 4.7 µM |
| CCC(=O)N1C/C(=C/c2ccc(Br)cc2)C(=O)/C(=C/c2ccc(Br)cc2)C1 | 0.546 µM | 1.2 µM | 0.88 µM | 4.6 µM | 0.102 µM | 0.433 µM | 0.186 µM | 0.553 µM | 1.01 µM | 3.75 µM | 1.32 µM | 3.22 µM | < 0.0497 µM | – | 0.706 µM | 1.79 µM | – | 1.02 µM | – | – |
| CCCCCCCCCCNCCSS(=O)(=O)O | 4.55 µM | 14.3 µM | 1.86 µM | 3.98 µM | 2.21 µM | 4.79 µM | 1.55 µM | 2.95 µM | 9.91 µM | 24.4 µM | 2.27 µM | 4.24 µM | 2.2 µM | 5.7 µM | 2.31 µM | 5.21 µM | – | – | 19.2 µM | 4.14 µM |
| COC1C=COC2(C)Oc3c(C)c(O)c4c(O)c(c(C5SCCS5)c(O)c4c3C2=O)NC(=O)/C(C)=C\C=CC(C)C(O)C(C)C(O)C(C)C(OC(C)=O)C1C (stereo not drawn) | – | 48.4 µM | – | 5.33 µM | – | 13 µM | – | 30.6 µM | – | 20.5 µM | – | 27.8 µM | – | 8.58 µM | – | 20.9 µM | – | 7.14 µM | – | – |
| O=C(/C=C/c1ccccn1)c1ccc(OCc2nnc(-c3ccc(Cl)cc3)o2)cc1 | 1.78 µM | 3.23 µM | 1.83 µM | 5.88 µM | 1.85 µM | 3.99 µM | 1.48 µM | 3.3 µM | 3.42 µM | 12.4 µM | 2.49 µM | 4.89 µM | 0.296 µM | 1.06 µM | 1.66 µM | 3.09 µM | 0.291 µM | 1.93 µM | – | – |
| Cc1ccc(N=C2N=C(N3CC(C)OC(C)C3)c3ccccc32)cc1 (stereo not drawn) | – | > 100 µM | – | 66.8 µM | – | 65 µM | – | 62.5 µM | – | 52.1 µM | – | > 100 µM | – | 87.1 µM | – | 38.1 µM | – | – | > 100 µM | – |
| N#CC1(C#N)C=CC(=C2OCC3CCCN23)C=C1 (stereo not drawn) | – | > 100 µM | – | > 100 µM | – | > 100 µM | – | > 100 µM | – | > 100 µM | – | > 100 µM | – | > 100 µM | – | > 100 µM | – | – | – | – |
| COc1ccc(-c2cn(-c3ccc(OC)c(OC)c3)c(=O)[nH]2)cc1 | > 100 µM | > 100 µM | > 100 µM | > 100 µM | 65.1 µM | > 100 µM | 92.1 µM | > 100 µM | 75.7 µM | > 100 µM | > 100 µM | > 100 µM | > 100 µM | > 100 µM | > 100 µM | > 100 µM | – | – | > 100 µM | > 100 µM |
| COc1ccc(O)cc1C(O)c1ccccc1 (stereo not drawn) | – | > 100 µM | – | > 100 µM | – | > 100 µM | – | > 100 µM | – | > 100 µM | – | > 100 µM | – | – | – | > 100 µM | – | – | > 100 µM | – |
| COc1ccc(/C=C/C(=O)c2c(-c3ccccc3)nn(C)c(=O)c2N2CCOCC2)cc1 | – | > 100 µM | – | > 100 µM | – | > 100 µM | – | – | – | – | – | – | – | > 100 µM | – | > 100 µM | – | – | > 100 µM | – |
| Nc1nc2c(-c3ccc([N+](=O)[O-])cc3)nnn2c2ccccc12 | – | > 100 µM | – | – | – | > 100 µM | – | > 100 µM | – | > 100 µM | – | > 100 µM | – | > 100 µM | – | > 100 µM | – | – | > 100 µM | – |
| O=C(Nc1ccc(Cl)cc1C(=O)O)c1ccc([N+](=O)[O-])cc1 | – | 34.1 µM | – | 67.4 µM | – | 40.7 µM | – | 36.2 µM | – | 47.1 µM | – | 55 µM | – | 97.3 µM | – | 37.5 µM | – | – | 82.8 µM | – |
| COCCc1n(Cc2ccc3ccccc3c2)c2ccccc2[n+]1Cc1ccc2ccccc2c1 | 1.28 µM | 2.76 µM | – | – | 0.379 µM | 1.51 µM | 0.415 µM | 1.64 µM | 0.329 µM | 1.34 µM | 1.11 µM | 2.47 µM | – | – | – | – | – | – | – | – |
